Assay results taken from ChEMBL document CHEMBL1909046, “DrugMatrix in vitro pharmacology data”.
pIC50: −log10 of the molar value.

Legend:
[1] = molecular target: T1, Alpha-1B adrenergic receptor (Rattus norvegicus, UniProt P15823); assay: DRUGMATRIX: Alpha-1B adrenergic receptor radioligand binding (ligand: prazosin); type: cell membranes, Wistar, Liver, Membrane; conditions: Not Active = under 50% inhibition at 10 µM
T1 sequence (P15823 whole entry): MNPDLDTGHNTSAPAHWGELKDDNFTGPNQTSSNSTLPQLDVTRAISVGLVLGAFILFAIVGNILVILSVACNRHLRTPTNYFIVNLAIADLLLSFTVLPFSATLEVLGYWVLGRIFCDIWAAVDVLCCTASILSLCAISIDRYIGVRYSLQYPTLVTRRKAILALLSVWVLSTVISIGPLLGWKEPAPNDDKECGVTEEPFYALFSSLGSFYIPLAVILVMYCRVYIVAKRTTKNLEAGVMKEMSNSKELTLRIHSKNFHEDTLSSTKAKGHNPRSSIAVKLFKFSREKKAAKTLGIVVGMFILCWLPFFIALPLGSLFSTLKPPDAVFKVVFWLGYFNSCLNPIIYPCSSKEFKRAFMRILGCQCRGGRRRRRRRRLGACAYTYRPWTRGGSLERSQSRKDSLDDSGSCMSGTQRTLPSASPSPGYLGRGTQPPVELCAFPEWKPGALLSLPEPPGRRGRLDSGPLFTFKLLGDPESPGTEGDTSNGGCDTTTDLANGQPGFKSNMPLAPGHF

[2] = molecular target: Aldo-keto reductase family 1 member B1 (Rattus norvegicus, UniProt P07943); assay: biochemical; type: tissue-based, Lens of camera-type eye;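 note: inhibition of aldose reductase enzyme activity, measured with DL-glyceraldehyde as the substrate; in other assays of this panel Not Active means under 50% inhibition at 10 µM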
[3] = molecular target: T2, Cholecystokinin receptor type A (Homo sapiens, UniProt P32238); type: cell membranes, Membrane; conditions: 1321-n1; note: in other assays of this panel Not Active means under 50% inhibition at 10 µM
T2 sequence (P32238 whole entry): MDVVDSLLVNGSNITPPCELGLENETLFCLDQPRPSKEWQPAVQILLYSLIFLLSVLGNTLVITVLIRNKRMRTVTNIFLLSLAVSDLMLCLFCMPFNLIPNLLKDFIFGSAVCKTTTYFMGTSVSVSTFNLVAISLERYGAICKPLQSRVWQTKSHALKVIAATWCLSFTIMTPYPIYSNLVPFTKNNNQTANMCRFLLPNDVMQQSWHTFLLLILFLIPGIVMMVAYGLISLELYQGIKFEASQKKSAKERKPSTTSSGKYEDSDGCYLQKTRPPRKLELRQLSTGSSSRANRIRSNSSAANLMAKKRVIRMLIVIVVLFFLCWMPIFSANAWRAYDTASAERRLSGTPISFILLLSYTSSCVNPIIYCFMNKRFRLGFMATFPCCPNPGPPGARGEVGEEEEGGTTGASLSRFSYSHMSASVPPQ

[4] = DRUGMATRIX: Nicotinic Acetylcholine radioligand binding (ligand: [125I] Epibatidine); type: cell membranes, Membrane; conditions: imr-32; Not Active = under 50% inhibition at 10 µM
[5] = molecular target: T3, Nitric oxide synthase, inducible (Mus musculus, UniProt P29477); design: species or system Escherichia coli;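 note: inhibition of iNOS enzyme activity measured with L-arginine as substrate; in other assays of this panel Not Active means under 50% inhibition at 10 µM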
T3 sequence (P29477 whole entry): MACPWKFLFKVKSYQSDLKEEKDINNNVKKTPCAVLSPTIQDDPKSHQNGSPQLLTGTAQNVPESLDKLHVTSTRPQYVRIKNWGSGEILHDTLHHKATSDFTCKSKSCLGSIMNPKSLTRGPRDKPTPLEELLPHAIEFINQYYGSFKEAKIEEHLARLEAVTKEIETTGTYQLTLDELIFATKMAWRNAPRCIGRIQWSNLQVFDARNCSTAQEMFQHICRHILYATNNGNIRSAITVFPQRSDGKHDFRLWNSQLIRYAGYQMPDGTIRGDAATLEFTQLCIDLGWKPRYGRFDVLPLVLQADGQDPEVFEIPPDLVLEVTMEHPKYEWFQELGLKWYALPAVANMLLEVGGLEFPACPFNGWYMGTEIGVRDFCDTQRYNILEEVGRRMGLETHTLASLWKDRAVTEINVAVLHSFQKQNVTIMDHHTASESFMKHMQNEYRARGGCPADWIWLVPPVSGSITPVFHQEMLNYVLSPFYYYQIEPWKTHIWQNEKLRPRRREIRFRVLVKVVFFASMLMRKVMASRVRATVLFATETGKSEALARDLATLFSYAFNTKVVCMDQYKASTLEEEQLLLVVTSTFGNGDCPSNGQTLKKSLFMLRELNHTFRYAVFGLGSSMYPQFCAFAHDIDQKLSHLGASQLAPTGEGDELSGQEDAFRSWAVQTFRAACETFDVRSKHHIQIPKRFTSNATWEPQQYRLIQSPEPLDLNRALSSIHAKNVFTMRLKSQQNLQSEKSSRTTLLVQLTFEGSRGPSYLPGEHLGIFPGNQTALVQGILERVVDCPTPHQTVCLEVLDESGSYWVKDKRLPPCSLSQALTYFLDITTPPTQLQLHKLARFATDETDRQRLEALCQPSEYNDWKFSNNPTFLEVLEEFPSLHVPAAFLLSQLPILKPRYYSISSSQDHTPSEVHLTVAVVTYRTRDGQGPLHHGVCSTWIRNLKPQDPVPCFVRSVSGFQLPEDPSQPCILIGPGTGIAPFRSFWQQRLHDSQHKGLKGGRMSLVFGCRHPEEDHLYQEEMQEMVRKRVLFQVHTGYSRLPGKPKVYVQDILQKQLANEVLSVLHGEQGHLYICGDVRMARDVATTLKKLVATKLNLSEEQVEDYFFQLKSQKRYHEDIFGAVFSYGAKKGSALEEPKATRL

[6] = DRUGMATRIX: Phosphodiesterase PDE3 enzyme inhibition (substrate: [3H]cAMP + cAMP); type: tissue-based, Homo sapiens; conditions: platelet, Not Active = under 50% inhibition at 10 µM; for pIC50: read-out: IC50
[7] = molecular target: Epidermal growth factor receptor (Homo sapiens, UniProt P00533); assay: DRUGMATRIX: Protein Tyrosine Kinase, EGF Receptor enzyme inhibition (substrate: Poly(Glu:Tyr)); type: cell-based, Insect cells; conditions: Not Active = under 50% inhibition at 10 µM; for IC50: insect cells; for pIC50: read-out: IC50
Epidermal growth factor receptor, sequence (P00533 whole entry): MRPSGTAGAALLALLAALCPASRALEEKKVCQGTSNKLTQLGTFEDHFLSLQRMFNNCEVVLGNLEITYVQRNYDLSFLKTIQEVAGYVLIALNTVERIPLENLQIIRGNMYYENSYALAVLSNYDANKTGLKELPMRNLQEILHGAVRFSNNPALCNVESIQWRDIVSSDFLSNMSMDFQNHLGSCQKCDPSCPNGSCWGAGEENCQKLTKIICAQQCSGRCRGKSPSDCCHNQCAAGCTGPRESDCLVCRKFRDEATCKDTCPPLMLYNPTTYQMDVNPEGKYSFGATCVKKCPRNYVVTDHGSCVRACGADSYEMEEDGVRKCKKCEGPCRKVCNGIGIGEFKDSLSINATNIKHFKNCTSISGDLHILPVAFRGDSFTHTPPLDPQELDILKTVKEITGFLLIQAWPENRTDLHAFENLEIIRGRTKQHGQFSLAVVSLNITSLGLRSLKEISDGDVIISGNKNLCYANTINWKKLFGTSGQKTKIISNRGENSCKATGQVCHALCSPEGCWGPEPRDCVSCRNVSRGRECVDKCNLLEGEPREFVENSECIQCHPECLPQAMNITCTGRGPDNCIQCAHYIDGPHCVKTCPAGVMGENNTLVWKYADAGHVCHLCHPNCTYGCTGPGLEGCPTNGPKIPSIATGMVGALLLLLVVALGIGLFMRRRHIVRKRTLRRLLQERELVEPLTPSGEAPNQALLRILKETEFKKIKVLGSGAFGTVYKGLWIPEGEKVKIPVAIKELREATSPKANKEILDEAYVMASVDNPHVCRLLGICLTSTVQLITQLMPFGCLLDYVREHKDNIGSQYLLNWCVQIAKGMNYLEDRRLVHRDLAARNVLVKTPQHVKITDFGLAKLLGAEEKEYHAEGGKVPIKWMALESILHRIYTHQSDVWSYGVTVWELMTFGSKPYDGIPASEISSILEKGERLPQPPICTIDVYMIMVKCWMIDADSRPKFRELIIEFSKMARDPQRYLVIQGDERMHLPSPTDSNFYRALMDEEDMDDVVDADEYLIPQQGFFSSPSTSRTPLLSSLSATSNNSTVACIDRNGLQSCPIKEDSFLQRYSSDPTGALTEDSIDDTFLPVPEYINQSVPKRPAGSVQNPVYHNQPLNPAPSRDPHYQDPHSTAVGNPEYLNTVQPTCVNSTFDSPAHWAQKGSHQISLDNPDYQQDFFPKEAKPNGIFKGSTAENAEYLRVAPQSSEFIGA

CS(=O)(=O)OCCCCOS(C)(=O)=O [BUSULFAN]
Not Active: IC50 [1] | IC50 [2] | IC50 [3] | IC50 [4] | Ki [4] | IC50 [5] | IC50 [6] | Ki [6] | IC50 [7]

O=C(/C=C/c1ccc(O)c(O)c1)OCCc1ccccc1 [CAFFEIC ACID PHENETHYL ESTER]
6.00: pIC50 [7]
5.85: pIC50 ([2]; read-out: IC50)
Not Active: IC50 [1] | IC50 [3] | IC50 [4] | Ki [4] | IC50 [5] | IC50 [6] | Ki [6]

COc1cc(CNC(=O)CCCC/C=C/C(C)C)ccc1O [CAPSAICIN]
Not Active: IC50 [1] | IC50 [2] | IC50 [3] | IC50 [4] | Ki [4] | IC50 [5] | IC50 [6] | Ki [6] | IC50 [7]

NC(=O)N1c2ccccc2C=Cc2ccccc21 [CARBAMAZEPINE]
Not Active: IC50 [1] | IC50 [2] | IC50 [3] | IC50 [4] | Ki [4] | IC50 [5] | IC50 [6] | Ki [6] | IC50 [7]

CCOC(=O)n1ccn(C)c1=S [CARBIMAZOLE]
Not Active: IC50 [1] | IC50 [2] | IC50 [3] | IC50 [4] | Ki [4] | IC50 [5] | IC50 [6] | Ki [6] | IC50 [7]

Oc1ccccc1O [CATECHOL]
Not Active: IC50 [1] | IC50 [2] | IC50 [3] | IC50 [4] | Ki [4] | IC50 [5] | IC50 [6] | Ki [6]
4.58: pIC50 [7]

CO[C@@]1(NC(=O)CSCC#N)C(=O)N2C(C(=O)O)=C(CSc3nnnn3C)CS[C@@H]21 [CEFMETAZOLE]
Not Active: IC50 [1] | IC50 [2] | IC50 [3] | IC50 [4] | Ki [4] | IC50 [5] | IC50 [6] | Ki [6] | IC50 [7]

CN(C(=O)CCCOc1ccc2[nH]c(=O)ccc2c1)C1CCCCC1 [CILOSTAMIDE]
7.26: pIC50 [6]
Not Active: IC50 [1] | IC50 [2] | IC50 [3] | IC50 [4] | Ki [4] | IC50 [5] | IC50 [7]

CC(C)(Oc1ccc(C2CC2(Cl)Cl)cc1)C(=O)O (stereo not drawn) [CIPROFIBRATE]
Not Active: IC50 [1] | IC50 [2] | IC50 [3] | IC50 [4] | Ki [4] | IC50 [5] | IC50 [6] | Ki [6] | IC50 [7]

Nc1nc(Cl)nc2c1ncn2[C@H]1C[C@H](O)[C@@H](CO)O1 [CLADRIBINE]
Not Active: IC50 [1] | IC50 [2] | IC50 [3] | IC50 [4] | Ki [4] | IC50 [5] | IC50 [6] | Ki [6] | IC50 [7]

CC[C@H]1OC(=O)[C@H](C)[C@@H](O[C@H]2C[C@@](C)(OC)[C@@H](O)[C@H](C)O2)[C@H](C)[C@@H](O[C@@H]2O[C@H](C)C[C@H](N(C)C)[C@H]2O)[C@](C)(OC)C[C@@H](C)C(=O)[C@H](C)[C@@H](O)[C@]1(C)O [CLARITHROMYCIN]
Not Active: IC50 [1] | IC50 [2] | IC50 [3] | IC50 [4] | Ki [4] | IC50 [5] | IC50 [6] | Ki [6] | IC50 [7]

CCC[C@@H]1C[C@@H](C(=O)N[C@@H]([C@H]2O[C@H](SC)[C@H](O)[C@@H](O)[C@H]2O)[C@H](C)Cl)N(C)C1 [CLINDAMYCIN]
Not Active: IC50 [1] | IC50 [2] | IC50 [3] | IC50 [4] | Ki [4] | IC50 [5] | IC50 [6] | Ki [6] | IC50 [7]

O=C(O)c1cc(=O)c2c(OCC(O)COc3cccc4oc(C(=O)O)cc(=O)c34)cccc2o1 [CROMOLYN]
Not Active: IC50 [1] | IC50 [2] | IC50 [3] | IC50 [4] | Ki [4] | IC50 [5] | IC50 [6] | Ki [6] | IC50 [7]

O=P1(N(CCCl)CCCl)NCCCO1 (stereo not drawn) [CYCLOPHOSPHAMIDE ANHYDROUS]
Not Active: IC50 [1] | IC50 [2] | IC50 [3] | IC50 [4] | Ki [4] | IC50 [5] | IC50 [6] | Ki [6] | IC50 [7]

CC(=O)O[C@]1(C(C)=O)CC[C@H]2[C@@H]3C=C(Cl)C4=CC(=O)[C@@H]5C[C@@H]5[C@]4(C)[C@H]3CC[C@@]21C [CYPROTERONE ACETATE]
Not Active: IC50 [1] | IC50 [2] | IC50 [3] | IC50 [4] | Ki [4] | IC50 [5] | IC50 [6] | Ki [6] | IC50 [7]

Nc1nc(N)nc(NC2CC2)n1 [CYROMAZINE]
Not Active: IC50 [1] | IC50 [2] | IC50 [3] | IC50 [4] | Ki [4] | IC50 [5] | IC50 [6] | Ki [6] | IC50 [7]

C#C[C@]1(O)CC[C@H]2[C@@H]3CCC4=Cc5oncc5C[C@]4(C)[C@H]3CC[C@@]21C [DANAZOL]
Not Active: IC50 [1] | IC50 [2] | IC50 [3] | IC50 [4] | Ki [4] | IC50 [5] | IC50 [7]
5.60: pIC50 [6]

CCN[C@@H](C)Cc1cccc(C(F)(F)F)c1 [DEXFENFLURAMINE]
Not Active: IC50 [1] | IC50 [2] | IC50 [3] | IC50 [4] | Ki [4] | IC50 [5] | IC50 [6] | Ki [6] | IC50 [7]

C[C@H](C(=O)O)c1cccc(C(=O)c2ccccc2)c1 [DEXKETOPROFEN]
Not Active: IC50 [1] | IC50 [2] | IC50 [3] | IC50 [4] | Ki [4] | IC50 [5] | IC50 [6] | Ki [6] | IC50 [7]

CN1C(=O)CN=C(c2ccccc2)c2cc(Cl)ccc21 [DIAZEPAM]
Not Active: IC50 [1] | IC50 [2] | IC50 [3] | IC50 [4] | Ki [4] | IC50 [5] | IC50 [6] | Ki [6] | IC50 [7]
